From patent US20110045998A1, “CANDIDATE GENES AND BLOOD BIOMARKERS FOR BIPOLAR MOOD DISORDER, ALCOHOLISM AND STRESS DISORDER” (priority 2007, published 2011)
Entries after “also recorded” stand apart in the source; their conditions may differ. Like-named read-outs stand apart in the source and are kept apart here.

How the values were obtained:
DBP KO mice = assay: Sleep deprivation experiments with valproate pre-treatment, locomotor activity by video tracking; format: in vivo
Method: To further characterize the behavioral phenotype of the DBP KO mice, group-housed (NST) male DBP KO mice were subjected to sleep deprivation for a 24 hour period. Following sleep deprivation, sleep-deprived (SD) mice and control non sleep-deprived (NSD) mice were monitored with video-tracking software. […] In a second sleep deprivation experiment, mice were pre-treated with an IP valproate injection (200 mg/kg) immediately prior to the sleep deprivation experiment. If the change in locomotor behavior that accompanies sleep-deprivation in the SD animals is representative of an endophenotype that is associated with bipolar disorder, then administration of the mood stabilizing agent valproate should counteract the behavioral response of DBP KO mice to sleep deprivation. […] Sleep Deprivation Experiments: Sleep deprivation studies consisted of light cycle changes, with no handling of animals involved, to avoid inducing non-sleep related handling stress confounds. Male DBP KO mice were used in the sleep deprivation experiments as follows: sleep deprived (SD) animals were removed from the standard housing room with a 12 hour off/12 hour on (reverse) light cycle and kept in a dark room overnight the night before the experiment. Non-sleep deprived (NSD) animals were kept in the housing room with the standard light cycle the night before the experiment to allow for a normal night's sleep. […]

[1] = test system: brain gene expression (PFC, AMY, CP, VT); set-up: key: I—Increased in expression; D—decreased in expression; conditions: cited from earlier work
DBP KO NST mice = assay: Locomotor pattern testing (open field video tracking) after acute methamphetamine, non-stressed mice; format: in vivo; conditions: methamphetamine 10 mg/kg intra-peritoneal
Method: Drugs: Mice were administered saline, valproate (200 mg/kg), or methamphetamine (10 mg/kg) acutely by intra-peritoneal injection.
Locomotor Pattern Testing: A SMART II Video Tracker (VT) system (San Diego Instruments, San Diego, Calif.) was used to track movement of mice immediately after drug administration and again 24 hours later. After injection, mice were placed in the lower-right-hand corner of one of four adjacent, 41×41×34-cm^3 enclosures. Mice had no physical contact with other mice during testing. Each enclosure has nine pre-defined areas, i.e. center area, corner area, and wall area. The movements of the mice were recorded for 30 minutes.
Measures of overall locomotor activity were obtained and represented by the total distance traveled within and between each of the nine regions of the enclosure. Two categories of behavior were obtained. First, the amount of locomotor activity was assessed by using the total distance traveled in the open field in a 30-minute interval. Second, the spatial scaling exponent, d, or spatial D, was obtained. Spatial D is a quantified measure of the geometric patterns of locomotor activity. Briefly, spatial d is a measure of the non-linear nature of an animal's locomotor movement and is quantified on a scale from 1 to 2; with d=1 indicating extremely linear movement and d=2 representing highly non-linear locomotor movement.
Data and Statistical Analysis: Two-way analyses of variance (ANOVAs) were used to compare total distance traveled and spatial d. Genotype and/or drug treatment were between-subjects variables, and time was a within-subjects variable. All computations were conducted with SPSS statistical software (SPSS Inc., Chicago, Ill.).
Non-Stress (NST) vs. Stress (ST) Experiments: For the Non-Stress (NST) experiments, mice were group housed. For the Stress (ST) experiments, mice were subjected to a chronic stress paradigm consisting of isolation (single housing) for one month, with an acute stressor (behavioral challenge tests) in Week 3. […] At four weeks, mice were injected with either saline or methamphetamine.

Question: Which “locomotion in NSD animals” value (DBP KO mice; NSD DBP KO mice, valproate 200 mg/kg vs non-valproate treated) does the source give for `CCCC(CCC)C(=O)O` [valproate, valproic acid] here?
Answer: Its value is “did not have any significant effect on locomotion”.

Question: And the “total distance traveled, sleep-deprived (SD) vs non sleep-deprived (NSD)” value (DBP KO mice; male DBP KO mice, IP valproate 200 mg/kg prior to 24 hour sleep deprivation)?
Answer: The value was “increase in locomotion is prevented; also recorded: no significant difference in the locomotor behavior of SD and NSD animals”.

Question: What about the “Cdk5r1 expression, Bipolar CFG (Ogden et al. 2004)” value (“Cdk5r1 expression, Bipolar CFG” for short) ([1]; AMY, Cat II) of the same compound?
Answer: Its value is “AMY Cat II-Meth(D) VPA(D)”.

Question: What about the “Cacnb2 expression, Bipolar CFG (Ogden et al. 2004)” value ([1]; AMY, Cat III) of the same compound?
Answer: Its value is “AMY Cat III-VPA(D)”.

Question: What about the “Ckmt1 expression, Bipolar CFG (Ogden et al. 2004)” value ([1]; AMY, Cat III) of the same compound?
Answer: The value was “AMY Cat III-Meth(I) VPA(I)”.

Question: What about the “Ids expression, Bipolar CFG (Ogden et al. 2004)” value ([1]; AMY, Cat III) of the same compound?
Answer: Its value is “AMY Cat III-VPA(D)”.

Question: And the “Mef2c expression, Bipolar CFG (Ogden et al. 2004)” value (shortened to “Mef2c expression, Bipolar CFG”) ([1]; AMY, Cat III)?
Answer: Its value is “AMY Cat III-VPA(D)”.

Question: What about the “Ptov1 expression, Bipolar CFG (Ogden et al. 2004)” value ([1]; AMY, Cat III) of the same compound?
Answer: The value was “AMY Cat III-VPA(I)”.

Question: And the “Actb expression, Bipolar CFG (Ogden et al. 2004)” value ([1]; AMY, Cat IV)?
Answer: The value was “AMY Cat IV-VPA (I)”.

Question: And the “Alcam expression, Bipolar CFG (Ogden et al. 2004)” value (shortened to “Alcam expression, Bipolar CFG”) ([1]; AMY, Cat IV)?
Answer: The value was “AMY Cat IV-VPA(D)”.

Question: What about the “Atp8a1 expression, Bipolar CFG (Ogden et al. 2004)” value ([1]; AMY, Cat IV) of the same compound?
Answer: Its value is “AMY Cat IV-VPA(D)”.

Question: And the “Clasp2 expression, Bipolar CFG (Ogden et al. 2004)” value ([1]; AMY, Cat IV)?
Answer: Its value is “AMY Cat IV-VPA(D)”.

Question: What about the “Peg3 expression, Bipolar CFG (Ogden et al. 2004)” value ([1]; AMY, Cat IV) of the same compound?
Answer: The value was “AMY Cat IV-VPA(D)”.

Question: What about the “Ptpn5/Step expression, Bipolar CFG (Ogden et al. 2004)” value ([1]; AMY, Cat IV) of the same compound?
Answer: Its value is “AMY Cat IV-VPA (I)”.

Question: What about the “Sez6 expression, Bipolar CFG (Ogden et al. 2004)” value ([1]; AMY, Cat IV) of the same compound?
Answer: Its value is “AMY Cat IV-VPA(I)”.

Question: What about the “Timp2 expression, Bipolar CFG (Ogden et al. 2004)” value ([1]; AMY, Cat IV) of the same compound?
Answer: The value was “AMY Cat IV-VPA (D)”.

Question: What about the “Cdk5r1 expression, Bipolar CFG” value ([1]; CP, Cat III) of the same compound?
Answer: Its value is “CP Cat III-VPA(I)”.

Question: What about the “Alcam expression, Bipolar CFG” value ([1]; CP, Cat IV) of the same compound?
Answer: Its value is “CP Cat IV-VPA(D)”.

Question: What about the “Cacnb2 expression, Bipolar CFG (Ogden et al. 2004)” value ([1]; CP, Cat IV) of the same compound?
Answer: The value was “CP Cat IV-VPA(I)”.

Question: What about the “Gnb1 expression, Bipolar CFG (Ogden et al. 2004)” value ([1]; CP, Cat IV) of the same compound?
Answer: Its value is “CP Cat IV-VPA (D)”.

Question: And the “Ids expression, Bipolar CFG (Ogden et al. 2004)” value ([1]; CP, Cat IV)?
Answer: The value was “CP Cat IV-VPA(I)”.

Question: What about the “Mef2a expression, Bipolar CFG (Ogden et al. 2004)” value ([1]; CP, Cat IV) of the same compound?
Answer: The value was “CP Cat IV-VPA (I)”.

Question: What about the “Gsk3b expression, Bipolar CFG (Ogden et al. 2004)” value ([1]; CP, IV) of the same compound?
Answer: Its value is “CP IV-VPA (D)”.

Question: What about the “Gpr88 expression, Bipolar CFG (Ogden et al. 2004)” value ([1]; PFC, Cat I) of the same compound?
Answer: Its value is “PFC Cat I-Meth(I) VPA (I)”.

Question: What about the “Mef2c expression, Bipolar CFG” value ([1]; PFC, Cat I) of the same compound?
Answer: Its value is “I”.

Question: And the “Penk1 expression, Bipolar CFG (Ogden et al. 2004)” value ([1]; PFC, Cat I)?
Answer: The value was “PFC Cat I-Meth(I) VPA(I)”.

Question: What about the “Ppp1r1b/Darp32 expression, Bipolar CFG (Ogden et al. 2004)” value ([1]; PFC, Cat I) of the same compound?
Answer: The value was “PFC Cat I-Meth(I) VPA(I)”.

Question: What about the “Tac1 expression, Bipolar CFG (Ogden et al. 2004)” value ([1]; PFC, Cat I) of the same compound?
Answer: The value was “PFC Cat I-Meth(I) VPA(I)”.

Question: What about the “Gng7 expression, Bipolar CFG (Ogden et al. 2004)” value ([1]; PFC, Cat III) of the same compound?
Answer: Its value is “PFC Cat III-Meth(I) VPA(I)”.

Question: And the “Scn4b expression, Bipolar CFG (Ogden et al. 2004)” value ([1]; PFC, Cat III)?
Answer: The value was “PFC Cat III-Meth(I) VPA(I)”.

Question: With `CN[C@@H](C)Cc1ccccc1` [methamphetamine] as the compound, how does the “stereotypy, as measured by Spatial Deviance” value (DBP KO NST mice; DBP KO NST mice) read?
Answer: The value was “reduction in stereotypy”.

Question: What about the “Total Distance Traveled” value (DBP KO NST mice; DBP KO NST mice, 30 minutes open field) of the same compound?
Answer: Its value is “reversed this decrease”.

Question: And the “stereotypy, as measured by Spatial Deviance” value (DBP KO NST mice; WT mice)?
Answer: Its value is “trend towards an increase in stereotypy”.

Question: What about the “Cdk5r1 expression, Bipolar CFG” value ([1]; AMY, Cat II) of the same compound?
Answer: The value was “AMY Cat II-Meth(D) VPA(D)”.

Question: What about the “Ckmt1 expression, Bipolar CFG (Ogden et al. 2004)” value ([1]; AMY, Cat III) of the same compound?
Answer: Its value is “AMY Cat III-Meth(I) VPA(I)”.

Question: What about the “Sec24d expression, Bipolar CFG (Ogden et al. 2004)” value ([1]; AMY, Cat III) of the same compound?
Answer: The value was “AMY Cat III-Meth(I)”.

Question: What about the “Gas5 expression, Bipolar CFG (Ogden et al. 2004)” value ([1]; AMY, Cat IV) of the same compound?
Answer: The value was “AMY Cat IV-Meth(I)”.

Question: What about the “Gnb1 expression, Bipolar CFG (Ogden et al. 2004)” value ([1]; AMY, Cat IV) of the same compound?
Answer: Its value is “AMY Cat IV-Meth (I)”.

Question: And the “Mef2a expression, Bipolar CFG (Ogden et al. 2004)” value ([1]; AMY, Cat IV)?
Answer: The value was “AMY Cat IV-Meth (D)”.

Question: And the “Ttr expression, Bipolar CFG (Ogden et al. 2004)” value ([1]; CP, Cat IV)?
Answer: Its value is “CP Cat IV-Meth(I)”.

Question: And the “Gpr88 expression, Bipolar CFG (Ogden et al. 2004)” value ([1]; PFC, Cat I)?
Answer: Its value is “PFC Cat I-Meth(I) VPA (I)”.

Question: And the “Mef2c expression, Bipolar CFG” value ([1]; PFC, Cat I)?
Answer: Its value is “D”.

Question: What about the “Penk1 expression, Bipolar CFG (Ogden et al. 2004)” value ([1]; PFC, Cat I) of the same compound?
Answer: Its value is “PFC Cat I-Meth(I) VPA(I)”.

Question: What about the “Ppp1r1b/Darp32 expression, Bipolar CFG (Ogden et al. 2004)” value ([1]; PFC, Cat I) of the same compound?
Answer: Its value is “PFC Cat I-Meth(I) VPA(I)”.

Question: And the “Tac1 expression, Bipolar CFG (Ogden et al. 2004)” value ([1]; PFC, Cat I)?
Answer: Its value is “PFC Cat I-Meth(I) VPA(I)”.

Question: And the “Alcam expression, Bipolar CFG” value ([1]; PFC, Cat III)?
Answer: Its value is “PFC Cat III-Meth(D)”.

Question: And the “Ddx6 expression, Bipolar CFG (Ogden et al. 2004)” value ([1]; PFC, Cat III)?
Answer: Its value is “PFC Cat III-Meth (D)”.

Question: And the “Gng7 expression, Bipolar CFG (Ogden et al. 2004)” value ([1]; PFC, Cat III)?
Answer: Its value is “PFC Cat III-Meth(I) VPA(I)”.

Question: What about the “Scn4b expression, Bipolar CFG (Ogden et al. 2004)” value ([1]; PFC, Cat III) of the same compound?
Answer: The value was “PFC Cat III-Meth(I) VPA(I)”.

Question: And the “Actb expression, Bipolar CFG (Ogden et al. 2004)” value ([1]; PFC, Cat IV)?
Answer: The value was “PFC Cat IV-Meth (D)”.

Question: And the “Arhgap5 expression, Bipolar CFG (Ogden et al. 2004)” value ([1]; PFC, Cat IV)?
Answer: The value was “PFC Cat IV-Meth (I)”.

Question: And the “Gabra4 expression, Bipolar CFG (Ogden et al. 2004)” value ([1]; PFC, Cat IV)?
Answer: Its value is “PFC Cat IV-METH (I)”.

Question: What about the “Gsk3b expression, Bipolar CFG (Ogden et al. 2004)” value ([1]; PFC, Cat IV) of the same compound?
Answer: The value was “PFC Cat IV-METH (D)”.

Question: What about the “Hectd1 expression, Bipolar CFG (Ogden et al. 2004)” value ([1]; PFC, Cat IV) of the same compound?
Answer: Its value is “PFC Cat IV-Meth(D)”.

Question: What about the “Peg3 expression, Bipolar CFG (Ogden et al. 2004)” value ([1]; PFC, Cat IV) of the same compound?
Answer: Its value is “PFC Cat IV-Meth(D)”.

Question: And the “Pten expression, Bipolar CFG (Ogden et al. 2004)” value ([1]; PFC, Cat IV)?
Answer: Its value is “PFC Cat IV-Meth(D)”.

Question: And the “Tmod2 expression, Bipolar CFG (Ogden et al. 2004)” value ([1]; PFC, Cat IV)?
Answer: The value was “PFC Cat IV-METH (D)”.

Question: And the “Alcam expression, Bipolar CFG” value ([1]; VT, Cat IV)?
Answer: Its value is “VT Cat IV-Meth(D)”.

Question: And the “Ddx6 expression, Bipolar CFG (Ogden et al. 2004)” value ([1]; VT, Cat IV)?
Answer: The value was “VT Cat IV-Meth (D)”.
